Reference: patent US10995068B2, “Synthetic sphingolipid-like molecules, drugs, methods of their synthesis and methods of treatment” (The Regents of the University of California, priority 2015, dated 2021)
Where two headings read alike, the source gives them in different places.

Key:
[1] = system: subcutaneous SW620 xenograft tumors; assay: SW620 xenograft study in nude mice; assay type: in vivo
Description: In even another exemplary study, anti-neoplasm potency of the constrained pyrrolidine sphingolipid-like compounds in xenograft tumor animal studies. Nude mice bearing subcutaneous SW620 xenograft tumors were treated daily with 10 mg/kg FTY720 or 20 mg/kg of compounds 5 or 15 by intraperitoneal injection. […] Furthermore, these compounds retain many of the beneficial abilities of FTY720, such as, for example water solubility, oral bioavailability, and anti-tumor activity but no longer trigger bradycardia. Thus, these compounds are ideal for medicaments and treatments for neoplasms.
SW620 and SW480 xenograft studies: For SW620 xenograft studies, two and one half million luciferase-expressing SW620 colon cancer cells suspended in PBS with 2% FCS are injected subcutaneously in the flank of 7 week old male nude mice (Charles Rivers Labs, Crl:NU(NCr)-Foxn1nu). When tumors reached 100 mm^3 in volume, mice are assigned to groups with matched average tumor volumes and animal weights. Four groups containing 7 mice are treated intraperitoneally with either vehicle (0.9% saline), 10 mg/kg FTY720, or 20 mg/kg compound 5 or compound 15. Tumor length and width are measured with calipers at 7 and 11 days of treatment. Tumor volume is calculated using the formula volume (mm^3)=length [mm]×(width [mm])^2×0.52. The average fold change in the volume of each tumor over time is shown.

[2] = system: Pancreas (PANC-1) cancer cell line; assay: IC50 in cancer cell lines (Table 3), pancreas; assay type: cell-based, human; conditions: Mean ± SEM, n ≥ 3
Description: (§1) Having observed a suitable potency of some embodiments of the invention, including, at least with compounds 3-6, 14 in prostate cancer cell lines, other cancer cell lines were tested with these compounds. […] Compounds that were active in prostate cancer cell lines also killed BCR-Abl-positive leukemia cells with similar potency to FTY720.
(§2) Cell culture studies: Sup-B15 cells are maintained at 2-3 million/mL in RPMI 1640 (Mediatech) supplemented with 10% fetal calf serum (FCS, Sigma-Aldrich), 10 mM Hepes (Mediatech), 55 μM β-mercaptoethanol (Sigma-Aldrich), 2 mM L-glutamine (Mediatech), and antibiotics. All adherent cells are maintained at 70-80% confluence. Cell are cultured in the following media: PC3 & A549, Ham's F12K (Corning Cell Gro) supplemented with 10% FCS and antibiotics; DU145 cells, MEM (Corning Cell Gro) supplemented with 10% FCS, 1 mM sodium pyruvate (Mediatech), and antibiotics; SW620 & MDA-MB-231, DMEM (Corning Cell Gro) with 10% FCS, 1 mM sodium pyruvate (Mediatech), and antibiotics; Panc-1 cells, DMEM (Corning Cell Gro) supplemented with 10% FCS and antibiotics. All of the above cell lines are available from the ATCC.
(§3) Viability assays: Cell Titer Glo assays (Cell Titer Glo Luminescent Cell Viability Assay kit, cat #G7571, Promega Corporation) are performed in clear bottom 96-well black cell culture plates (cat #655090, Greiner Bio-One, NC, USA). After plating at 1,000 cells/well in volume of 100 μl, cells are left undisturbed for at least 24 h before drug addition. After 72 h, cells are prepared for analysis by adding 10 μl of 0.1% Triton-X100 in PBS with shaking for 1 min at room temperature (RT). Cell Titer-Glo cell lysis reagent (20 μl) is then added followed by 1 min of shaking and a 10 min incubation in the dark at RT. Luminescence is detected using an IVIS imaging system (IVIS Lumina II, Perkin Elmer, USA). […] IC50s are determined using GraphPad Prism (GraphPad Software, Inc, La Jolla, Calif.). SupB-15 viability was determined by flow cytometry. Cell Titer Glo assays were performed with the other cell lines.

Leukemia (SupB-15) cells = assay: IC50 in cancer cell lines (Table 3), leukemia; assay type: cell-based, human; conditions: flow cytometry, Mean ± SEM, n ≥ 3
Description: as §1, §2, §3

[3] = system: PC3 prostate cancer cells; assay: Cell Titer Glo proliferation assay in PC3; assay type: cell-based, human; conditions: for IC50: Cell Titer Glo, 72 h, Mean ± SEM, n ≥ 3, read-out: IC50 values in prostate cancer cell lines, PC3; for activity in the prostate cancer cell proliferation assay (in words): PC3 and DU145, Cell Titer Glo
Summary of the method: (§4)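 Cells plated at 1,000 cells/well and left at least 24 h, then exposed to compound for 72 h. Permeabilised with 0.1% Triton-X100, lysed with Cell Titer-Glo reagent, luminescence read; IC50 from dose-response curves. PC3 grown in F12K with 10% FCS, DU145 in MEM with 10% FCS and pyruvate.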

[4] = system: Breast (MDA-MB-231) cancer cell line; assay: IC50 in cancer cell lines (Table 3), breast; assay type: cell-based, human; conditions: Mean ± SEM, n ≥ 3
Description: as §1, §2, §3

[5] = system: DU145 prostate cancer cells; assay: Cell Titer Glo proliferation assay in DU145; assay type: cell-based, human; conditions: Mean ± SEM, n ≥ 3, read-out: IC50 values in prostate cancer cell lines, DU145
Summary of the method: as §4

[6] = system: Colon (SW-620) cancer cell line; assay: IC50 in cancer cell lines (Table 3), colon; assay type: cell-based, human; conditions: Mean ± SEM, n ≥ 3
Description: as §1, §2, §3

[7] = system: PC3 prostate cancer cells; assay: Cell viability by vital dye exclusion and flow cytometry in PC3; assay type: cell-based, human; conditions: vital dye exclusion (DAPI) and flow cytometry, 72 h
Description: Thus, to determine whether analogues in accordance with embodiments of the invention are cytotoxic, studies were conducted using vital dye exclusion and flow cytometry (Table 2).
as §3

[8] = system: Lung (A-549) cancer cell line; assay: IC50 in cancer cell lines (Table 3), lung; assay type: cell-based, human; conditions: Mean ± SEM, n ≥ 3
Description: as §1, §2, §3

IC50 [2]	IC50 (Leukemia (SupB-15) cells)	IC50 [3]	IC50 [4]	IC50 ([5]; 72 h)	IC50 [6]	IC50 [7]	IC50 [8]	SMILES	tumor growth of SW620 xenografts ([1]; 20 mg/kg daily by intraperitoneal injection)	IC50 ([2]; Homo sapiens, PANC-1)	IC50 (Leukemia (SupB-15) cells; Homo sapiens, SUP-B15)	IC50 ([3]; Homo sapiens)	activity in the prostate cancer cell proliferation assay (in words) [3]	IC50 ([4]; Homo sapiens, MDA-MB-231)	IC50 ([5]; Homo sapiens, DU-145, 72 h)	IC50 ([6]; Homo sapiens, SW-620)	IC50 ([7]; Homo sapiens)	IC50 ([8]; Homo sapiens, A549)	tumor growth of SW620 xenografts ([1]; 10 mg/kg daily by intraperitoneal injection)
								CCCCCCCCc1ccc([C@H]2CCN[C@@H]2CO)cc1.Cl [Compound 5, (2S,3R)-2-(hydroxymethyl)-3-(4-octylphenyl)Pyrrolidinium chloride]	inhibited tumor growth	3.3 ± 0.5 µM	5.1 ± 0.9 µM	4 ± 0.7 µM	as active as FTY720	2.1 ± 0.2 µM	3.8 ± 0.4 µM	2.5 ± 0.1 µM	5.5 ± 0.4 µM	8.9 ± 1.4 µM	
5 ± 0.9 µM	5.9 ± 0.1 µM	3 ± 0.4 µM	4.9 ± 0.6 µM	3.7 ± 0.4 µM	2.1 ± 0.2 µM	5.4 ± 0.6 µM	8.4 ± 1.2 µM	CCCCCCCCc1ccc([C@@H]2CCN[C@H]2CO)cc1.Cl [Compound 6]					as active as FTY720						
								CCCCCCCCc1ccc(CCC(N)(CO)CO)cc1.Cl [FTY720, 2-Amino-2-[2-(4-octylphenyl)ethyl]propane 1,3-diol hydrochloride, reference compound]		4.6 ± 0.5 µM	6.8 ± 0.7 µM	2.6 ± 0.2 µM		4 ± 0.1 µM	3.1 ± 0.2 µM	2.8 ± 0.1 µM	4.8 ± 0.1 µM	6 ± 0.4 µM	inhibited tumor growth
